In the supplement of paper PMC10702517:
± gives the standard deviation.

Assay: chemical recovery from spiked human plasma; higher = better extraction
Conditions: pooled human plasma; extraction method: solvent precipitation (ACN + hexane)

`COCC(C)N(C(=O)CCl)c1c(C)csc1C` (configuration not stated) [Dimethenamid] and `COCCN(C(=O)CCl)c1c(C)cccc1C` [Dimethachlor] are within error of each other in chemical recovery: 55.4 ± 3.7% for the first, 63.4 ± 4.6% for the second.

`Cc1cc(=O)oc2cc(N)ccc12` [7-Amino-4-methylcoumarin] and `Cc1cc(Cc2ccc(N)c(C)c2)ccc1N` [4,4'-Methylene-bis(2-methyl aniline)] are within error of each other in chemical recovery: 70.4 ± 2% for the first, 65 ± 9.2% for the second.

`Oc1ccc(Cl)cc1Cc1ccccc1` [Chlorophene] and `c1ccc2c(c1)[nH]c1cnccc12` [Norharmane] are within error of each other in chemical recovery: 76.9 ± 7.2% for the first, 77.7 ± 5.3% for the second.

`COC[P+](c1ccccc1)(c1ccccc1)c1ccccc1` [(Methoxymethyl)triphenylphosphonium] and `CO/C=C(/C(=O)O)c1ccccc1Oc1cc(Oc2ccccc2C#N)ncn1` [Azoxystrobin acid] are within error of each other in chemical recovery: 71.1 ± 3.3% for the first, 76.6 ± 5.2% for the second.

`Cc1ccc(S(N)(=O)=O)cc1` [p-Toluenesulfonamide] and `Nc1ccc(-c2ccc(N)c(Cl)c2)cc1Cl` [3,3'-Dichlorobenzidine] are within error of each other in chemical recovery: 77.9 ± 3.1% for the first, 72 ± 6.2% for the second.

Compared with `Clc1cc(Cl)c(-c2cc(Cl)c(Cl)cc2Cl)cc1Cl` [PCB153], `Clc1cc(Cl)c(-c2c(Cl)ccc(Cl)c2Cl)cc1Cl` [PCB149] is higher in chemical recovery: 77.6 ± 3.5% for the first, 91 ± 6.8% for the second.

Compound `Cc1c(C(C)C)c(=O)n(-c2ccccc2)n1C` [Propyphenazone] has a chemical recovery of 69.31 ± 0.67%.

Assay: chemical recovery into PDMS from spiked human plasma; higher = better extraction
Conditions: pooled human plasma; extraction method: PES with PDMS; equilibration time (d): 1

Compared with `CCCCc1oc2ccccc2c1C(=O)c1cc(I)c(OCCN(CC)CC)c(I)c1` [Amiodarone], `COCCN(C(=O)CCl)c1c(C)cccc1C` [Dimethachlor] is higher in “chemical recovery into PDMS” value: 0.0444 ± 0.019% for the first, 34.9 ± 0.41% for the second.

`CN(C)C(=O)Nc1ccc(Cl)c(Cl)c1` [Diuron] and `Cc1ccc(NC(=O)N(C)C)cc1Cl` [Chlorotoluron] are within error of each other in “chemical recovery into PDMS” value: 32.6 ± 1.8% for the first, 32 ± 1.2% for the second.

First: O=C(O)c1ccc(Cl)cc1Cl [2,4-Dichlorobenzoic acid]
Second: Oc1ccc(Cl)cc1Cc1cc(Cl)ccc1O [Dichlorophen]
The “chemical recovery into PDMS” value of the first is lower: 0.268 ± 0.04% for the first, 0.919 ± 0.12% for the second.

Going from `CO/C=C(/C(=O)OC)c1ccccc1COc1cccc(C(F)(F)F)n1` [Picoxystrobin] to `CNC1=C(c2cccc(C(F)(F)F)c2)C(=O)C(c2ccccc2)O1` (configuration not stated) [Flurtamone], the “chemical recovery into PDMS” value falls from 47 ± 3.2% to 1.85 ± 0.36%.

Going from `CCCCC(=O)O[C@]1(C(=O)CO)[C@@H](C)C[C@H]2[C@@H]3CCC4=CC(=O)C=C[C@]4(C)[C@@]3(F)[C@@H](O)C[C@@]21C` [Betamethasone-17-valerate] to `C[C@H]1C[C@H]2[C@@H]3CCC4=CC(=O)C=C[C@]4(C)[C@@]3(F)[C@@H](O)C[C@]2(C)[C@@]1(O)C(=O)CCl` [Clobetasol], the “chemical recovery into PDMS” value falls from 12.9 ± 1.3% to 1.52 ± 0.65%.

Going from `CC(=O)[C@@]1(O)CC[C@H]2[C@@H]3C[C@H](C)C4=CC(=O)C=C[C@]4(C)[C@@]3(F)[C@@H](O)C[C@@]21C` [Fluorometholone] to `C[C@]12CCC(=O)C=C1[C@@H]1C[C@@H]1[C@H]1[C@@H]3[C@@H]4C[C@@H]4[C@@]4(CCC(=O)O4)[C@@]3(C)CC[C@@H]12` [Drospirenone], the “chemical recovery into PDMS” value rises from 1.66 ± 0.4% to 41.9 ± 2.5%.

Going from `Cc1cc(C2CCCCC2)n(O)c(=O)c1` [Ciclopirox] to `c1ccc2sc(NC3CCCCC3)nc2c1` [N-Cyclohexyl-2-benzothiazole-amine], the “chemical recovery into PDMS” value rises from 22 ± 5% to 32.4 ± 2.2%.

Compared with `C/C(=N\C#N)N(C)Cc1ccc(Cl)nc1` [Acetamiprid], `CCCCC(C#N)(Cn1cncn1)c1ccc(Cl)cc1` (configuration not stated) [Myclobutanil] is higher in “chemical recovery into PDMS” value: 9.86 ± 0.62% for the first, 38.4 ± 1.9% for the second.

First: c1ccc(-c2ccc(C(c3ccccc3)n3ccnc3)cc2)cc1 (configuration not stated) [Bifonazol]
Second: c1ccc(-c2ccccc2-c2ccccc2)cc1 [o-Terphenyl]
The “chemical recovery into PDMS” value of the first is lower: 38.6 ± 3.1% for the first, 81.9 ± 26% for the second.

`ClC1=C(Cl)C2(Cl)C3C4C=CC(C4)C3C1(Cl)C2(Cl)Cl` (configuration not stated) [Aldrin] and `Clc1ccc(Cl)c(-c2cc(Cl)c(Cl)cc2Cl)c1` [PCB101] are within error of each other in “chemical recovery into PDMS” value: 84.1 ± 2.4% for the first, 88.4 ± 5.7% for the second.

Going from `CCNc1nc(NC(C)(C)C)nc(SC)n1` [Terbutryn] to `CCCCc1c(C)nc(NCC)nc1OS(=O)(=O)N(C)C` [Bupirimate], the “chemical recovery into PDMS” value rises from 21.7 ± 8.2% to 40.3 ± 1.4%.

Going from `CCOC(=O)C1=C(C)NC(C)=C(C(=O)OC)C1c1cccc([N+](=O)[O-])c1` (configuration not stated) [Nitrendipin] to `COCC(=O)N(c1c(C)cccc1C)C(C)C(=O)OC` (configuration not stated) [Metalaxyl], the “chemical recovery into PDMS” value rises from 13.4 ± 0.56% to 33.1 ± 0.4%.

First: O=P(c1ccccc1)(c1ccccc1)c1ccccc1 [Triphenylphosphine oxide]
Second: c1ccc(/N=N/c2ccccc2)cc1 [Azobenzene]
The “chemical recovery into PDMS” value of the first is higher: 41 ± 1.5% for the first, 26.2 ± 3.9% for the second.

Compared with `C=CCOC(Cn1ccnc1)c1ccc(Cl)cc1Cl` (configuration not stated) [Imazalil], `Oc1ccc(Cl)cc1Cc1ccccc1` [Chlorophene] is lower in “chemical recovery into PDMS” value: 20 ± 0.37% for the first, 13.4 ± 0.41% for the second.

First: O=C(Nc1ccccc1-c1ccc(Cl)cc1)c1cccnc1Cl [Boscalid]
Second: Clc1ccc2c(c1)CCc1cccnc1C2=C1CCNCC1 [Desloratadine]
The “chemical recovery into PDMS” value of the first is higher: 41.6 ± 1.9% for the first, 0.203 ± 0.15% for the second.

First: CC(CCl)OP(=O)(OC(C)CCl)OC(C)CCl (configuration not stated) [Tris(1-chloro-2-propyl)phosphate]
Second: COCC(C)N(C(=O)CCl)c1c(C)csc1C (configuration not stated) [Dimethenamid]
The “chemical recovery into PDMS” value of the first is lower: 34.1 ± 1.8% for the first, 41.5 ± 0.65% for the second.

First: Cc1cc(C2CC2)nc(Nc2ccccc2)n1 [Cyprodinil]
Second: Cc1cc(Cc2ccc(N)c(C)c2)ccc1N [4,4'-Methylene-bis(2-methyl aniline)]
The “chemical recovery into PDMS” value of the first is higher: 33.5 ± 1.8% for the first, 0.0153 ± 0.026% for the second.

First: CC1CCc2cc(F)cc3c(=O)c(C(=O)O)cn1c23 (configuration not stated) [Flumequine]
Second: Cc1cc(=O)oc2cc(N)ccc12 [7-Amino-4-methylcoumarin]
The “chemical recovery into PDMS” value of the first is lower: 0.511 ± 0.092% for the first, 12.65 ± 0.075% for the second.

Going from `CC(=O)CCCCn1c(=O)c2c(ncn2C)n(C)c1=O` [Pentoxifylline] to `CC(=O)c1cc2c(cc1C)C(C)(C)C(C)CC2(C)C` (configuration not stated) [Tonalide], the “chemical recovery into PDMS” value rises from 17.2 ± 0.99% to 49 ± 3.7%.

In the case of `Cc1ccc(S(N)(=O)=O)cc1` [p-Toluenesulfonamide], the “chemical recovery into PDMS” value is reported as 2.17 ± 0.29%.
